{"source": "paper PMC12670400", "about": "“LEKTI-Grafted Sunflower Trypsin Inhibitor: A Potential Therapeutic for Skin Diseases” (Journal of Medicinal Chemistry, 2025)", "key": {"[1]": {"system": "KLK5-mediated PAR2 activation", "assay": "PAR2-dependent intracellular calcium mobilization assay in N/TERT keratinocytes", "format": "cell-based", "details": "2.5 to 40 μM, rKLK5 10 μM, preincubated one hour, n = 3, listed as lead 7", "source_text": "PAR2, a member of the G-protein-coupled receptor family expressed in keratinocytes, is a known downstream target of KLK5. KLK5 activates PAR2 by cleaving its extracellular N-terminal domain. This cleavage exposes a tethered ligand, which binds PAR2 intramolecularly to activate the receptor. , Activated PAR2 causes protein kinase C (PKC) and inositol 1,4,5-trisphosphate (IP3) activation, leading to calcium release from the endoplasmic reticulum, known as intracellular calcium mobilization. […] This delay is attributed to the time required for KLK5 to enzymatically cleave the extracellular N-terminal domain of PAR2, thereby exposing the tethered ligand sequence necessary to initiate receptor activation and downstream calcium signaling. […] This observation confirmed PAR2-dependent calcium mobilization and that rKLK5 could initiate PAR2 activation. The inhibition potential of lead 7 on KLK5 activity was then assessed by using this assay. rKLK5 was preincubated with lead 7 at concentrations of 2.5, 5, 20, or 40 μM for one hour before being applied to cultured keratinocytes, after which PAR2-dependent calcium mobilization was measured.\nFor Ki calculation, Km values for KLK5 and its substrate Boc-VPR-AMC were previously reported in the literature 8, 9, allowing the conversion from IC50 to Ki using the Cheng Prusoff equation10 Kᵢ = IC₅₀ / (1 + [S]/Kₘ) for single-site competitive binding.\nCell lines and tissue cultures\nKeratinocytes isolated from the skin in a patient with genetic skin disease Netherton Syndrome (NS19) and in healthy donors (C42, C46, P8) were used in the study. […]\nThe immortalized keratinocyte cell line (N/TERT)13, 14 were used for the assay. […] The cells were counted, and 100 µL of the suspension, at a density of 600,000 cells/mL, was seeded into each well of a 96 -well microplate. […]\ncalcium signalling. […] Fluorescence excitation was set at 485 nm, and emission was recorded at 520 nm using SpectraMax® i3x plate reader. […]"}, "[2]": {"system": "endogenous KLK5 of NS keratinocytes", "assay": "KLK5 protease activity assay for culture medium of NS keratinocytes", "format": "biochemical, human", "details": "for KLK5 activity in NS keratinocytes medium after treatment: one hour, n = 3, untreated 51.9 ± 1.6 nmol/g", "method": "To evaluate the inhibition of lead 7 on endogenous KLK5 activity, media collected from cultured NS keratinocytes and healthy donor keratinocytes were incubated with lead 7 at the final concentration of 100 nM, or 1 μM, or 10 μM for one hour. Media were then concentrated, and KLK5 activity was measured. […] There were significant differences in KLK5 activity before and after treatment (p < 0.05, n = 3). […] This may be because lead 7 exerts inhibitory effects only when KLK5 activity exceeds a certain threshold, which is not reached in keratinocytes from healthy donors. It was noted that the activity of KLK5 in NS was not reduced to the levels observed in normal keratinocytes. Two reasons might be behind this: (i) a higher lead 7 dose may be required, and (ii) the VPR-AMC substrate can be cleaved by a wider range of serine proteases. The remaining noninhibitory activity could be attributed to the presence of other trypsin-like serine proteases secreted in the cultured medium, which can hydrolyze the VPR-AMC substrate but are not inhibited by lead 7. […]\nKLK5 protease activity assay for culture medium\nKeratinocytes were seeded in 6 well plate with the density of 0.2 × 10⁶ cells per well and cultured in RM+ medium until they reached confluency. The culture media were changed to FBS free-RM+ media, and cells were continuously cultured. 48 hours after the medium changing, the culture media were harvested from the cell culture plates and centrifuged to remove dead cells. A volume of 180 µL of the supernatants was transferred to 1.5 mL Eppendorf tubes, followed by the addition of 20 µL of analogues in 1x PBS at different concentrations. The samples in which 20 µL of 1x PBS instead of the lead 7 were added were as untreated controls. These mixtures were incubated for one hours at 37 degrees Celsius and then processed for precipitation to concentrate the samples using ProteoExtract® Protein Precipitation Kit (Millipore, cat no. 539180). The precipitates were resuspended in 20 µL of 1X PBS (pH 8.0) for protease activity assessment using protease activity assay. 10uL of suspension from each sample was added in 96 well black plate. The enzymatic reaction was initiated by adding 100 µL of Boc-VPR-AMC substrate (final concentration 100 µM) to each well and RFU values in samples were measured. Protease activities were expressed as nmol/g by first converting RFU readings to KLK5 equivalent concentration activity using a KLK5 standard curve, followed by normalization to total protein content"}}, "note": "“Also recorded” adds a separate entry of the source. Bridge positions count the residues as written; N and C are the ends. Peptide text beside a SMILES is read from it.", "data": [{"compound": "C[C@@H](O)[C@@H]1NC(=O)[C@@H]2CSSC[C@H](NC(=O)[C@H](CCC(=O)O)NC(=O)[C@@H]3CCCN3C(=O)[C@@H]3CCCN3C(=O)[C@H](CC(N)=O)NC(=O)[C@H](CO)NC(=O)[C@H](CCCNC(=N)N)NC1=O)C(=O)N[C@@H](Cc1c[nH]c3ccccc13)C(=O)N1CCC[C@H]1C(=O)N[C@@H](CC(N)=O)C(=O)NCC(=O)N[C@@H](Cc1ccccc1)C(=O)N2", "note": "[compound 7] (cyclo(GFCTRSNPPECWPN); disulfide 3-11)", "values": [{"measurement": "PAR2-dependent calcium mobilization after rKLK5 preincubated with inhibitor", "setting": "[1]", "result": "dose-dependent reduction; also recorded: progressive reduction in calcium release"}, {"measurement": "reduction in KLK5 activity, NS keratinocytes", "setting": "[2]; 100 nM", "result": 14.6, "unit": "%"}, {"measurement": "KLK5 activity in NS keratinocytes medium after treatment", "setting": "[2]; 100 nM", "result": "44.3 ± 2.7", "unit": "nmol/g"}, {"measurement": "reduction in KLK5 activity, NS keratinocytes", "setting": "[2]; 1 μM", "result": 35.5, "unit": "%"}, {"measurement": "KLK5 activity in NS keratinocytes medium after treatment", "setting": "[2]; 1 μM", "result": "33.5 ± 2.6", "unit": "nmol/g"}, {"measurement": "reduction in KLK5 activity, NS keratinocytes", "setting": "[2]; 10 μM", "result": 41.2, "unit": "%"}, {"measurement": "KLK5 activity in NS keratinocytes medium after treatment", "setting": "[2]; 10 μM", "result": "30.5 ± 1.7", "unit": "nmol/g"}]}]}
